Measurements published in patent publication US20210198201A1, “Orally Active Melanocortin Receptor-4 Compounds” (Palatin Technologies, Inc., priority 2018, published 2021).
Marks after values point to notes of the source that are not given here.

Experiments:
MC4r [1] = molecular target: T1, MC4r (Homo sapiens, UniProt P32245); assay: Competitive inhibition binding assay, MC4r; set-up: expressed in transfected cells; host or cells: HEK-293 (membrane homogenates); conditions: binding studies
Experimental: (§1) A competitive inhibition binding assay is performed using membrane homogenates prepared from HEK-293 cells that express recombinant hMC1ra, hMC4r, hMC3r, or hMC5r, and from B16-F10 mouse melanoma cells (containing endogenous MC1r). In the examples that follow, all values are for human recombinant receptors unless otherwise noted. Assays are performed in 96 well GF/B Millipore multiscreen filtration plates (MAFB NOB10) pre-coated with 0.5% bovine serum albumin (Fraction V). […] After incubation for 60 to 90 minutes at 37° C., the assay mixture is filtered and the membranes washed three times with ice-cold buffer. Filters are dried and counted in a gamma counter for bound radioactivity.
(§2) Maximal specific binding (100%) is defined as the difference in radioactivity (cpm) bound to cell membranes in the absence and presence of 1 μM NDP-α-MSH. […] Each assay is conducted in duplicate or triplicate and the actual mean values are described, with results less than 0% reported as 0%. Ki values for test compounds are determined using Graph-Pad Prism® curve-fitting software.
Competitive Binding Assay Using Eu-NDP-α-MSH. Alternatively, a competitive inhibition binding assay is performed employing Eu-NDP-α-MSH (PerkinElmer Life Sciences catalog No. AD0225) with determination by time-resolved fluorometry (TRF) of the lanthanide chelate. […] After incubation for 90 minutes at 37° C., the reaction was stopped by filtration over Acro Well 96-well filter plates (Pall Life Sciences). The filter plates were washed 4 times with 200 μL of ice-cold phosphate-buffered saline. DELFIA Enhancement solution (PerkinElmer Life Sciences) was added to each well. The plates were incubated on a shaker for 15 minutes and read at 340 nm excitation and 615 nm emission wavelengths. Each assay was conducted in duplicate and mean values were utilized. Ki values were determined by curve-fitting with Graph-Pad Prism® software using a one-site fixed-slope competition binding model.

MC4r [2] = molecular target: T1, MC4r; assay: cAMP functional study in human MC4r expression system approximating maximal physiologic receptor densities; type: cell-based; set-up: host or cells: TREx-293; conditions: low receptor density human MC4r system; for Emax: read-out: relative efficacy, compared to NDP-α-MSH
Experimental: Assay for Agonist Activity. Accumulation of intracellular cAMP was examined as a measure of the ability of the peptides of the present invention to elicit a functional response in HEK-293 cells that express MC4-R. Confluent HEK-293 cells that express recombinant hMC4-R were detached from culture plates by incubation in enzyme-free cell dissociation buffer. Dispersed cells were suspended in Hanks' Balanced Salt Solution containing 10 mM HEPES (pH 7.5), 1 mM MgCl2, 1 mM glutamine, 0.5% albumin and 0.3 mM 3-isobutyl-1-methyl-xanthine (IBMX), a phosphodiesterase inhibitor. The cells were plated in 96-well plates at a density of 0.5×10^5 cells per well and pre-incubated for 10 minutes. Cells were exposed for 15 minutes at 37° C. to peptides of the present invention dissolved in DMSO (final DMSO concentration of 1%) at a concentration range of 0.05-5000 nM in a total assay volume of 200 μL. NDP-α-MSH was used as the reference agonist. cAMP levels were determined by an HTRF® cAMP cell-based assay system from Cisbio Bioassays utilizing cryptate-labeled anti-cAMP and d2-labeled cAMP, with plates read on a Perkin-Elmer Victor plate reader at […]. Data analysis was performed by nonlinear regression analysis with Graph-Pad Prism® software. The maximum efficacies of the test peptides of the present invention were compared to that achieved by the reference melanocortin agonist NDP-αMSH.
Low Receptor Density Systems. In functional studies preferably a human MC4r expression system approximating maximal human physiologic receptor densities is employed. In one aspect, a tetracycline-regulated mammalian expression system that uses regulatory elements from the E. coli Tn10-encoded tetracycline (Tet) resistance operon was employed (T-REx™ System, Invitrogen). By use of the T-REx™ System, expression of the gene of interest, the human MC4-R gene, was repressed in the absence of tetracycline or doxycycline and induced in the presence of tetracycline or doxycycline, with receptor density being dependent on the concentration of tetracycline or doxycycline. See generally Yao F. et al: Tetracycline repressor, tetR, rather than the tetR-mammalian cell transcription factor fusion derivatives, regulates inducible gene expression in mammalian cells. Hum. Gene Ther. 9:1939-1950 (1998), incorporated here by reference. Regulation was based on the binding of tetracycline or doxycycline, a derivative of tetracycline, to the Tet repressor and derepression of the promoter controlling expression of the human MC4-R gene. In general tetracycline or related regulators, such as tetracycline-derivatives, may be used to induce the gene expression. An inducible expression plasmid for expression of human MC4-R gene under the control of the strong human cytomegalovirus immediate-early (CMV) promoter and two tetracycline operator 2 (TetO2) sites was employed, together with a regulatory plasmid, pcDNA6/TR, which encodes the Tet repressor (TetR) under the control of the human SV40 promoter. Thus, expression of the human MC4-R gene from the inducible expression vector was controlled by the strong CMV promoter into which 2 copies of the tet operator 2 (TetO2) sequence had been inserted in tandem. The TetO2 sequences consisted of 2 copies of 19-nucleotide sequence separated by a 2 base pair spacer. Each 19 nucleotide TetO2 sequence served as the binding site for 2 molecules of the Tet repressor. The expression vector pcDNA4/TO/MC4R was introduced into TREx-293 (Invitrogen, R710-07), a cell line stably expressing the tetracycline repressor pcDNA6/TR using lipofectamin 2000 reagent (Invitrogen, 11668-019). Alternatively, both the expression vector and repressor are introduced into host cells by standard transformation or transfection methods.

MC1r = molecular target: T2, MC1r (Homo sapiens, UniProt Q01726); assay: Competitive inhibition binding assay, MC1r; conditions: binding studies
T2 construct: expressed in transfected cells; host or cells: HEK-293 (membrane homogenates)
Experimental: as §1, §2

C57BL/6 male DIO mice = assay: Body weight and food intake in vivo study in diet induced obese mice; set-up: species or system mouse; conditions: for Body Weight Change (%) Mean / Food Intake - 24 Hours (g) Mean: 1 mg/kg subcutaneous twice daily
Experimental: Compound 7.1 was assessed in a body weight and food intake in vivo study in diet induced obese […] mice. C57BL/6 male DIO mice were utilized, that were 17 weeks of age on arrival. Animals were pre-conditioned on a high-fat diet for 11 weeks by Jackson Labs. […] Animals were single housed within a limited access rodent facility, and provided ad libitum with a commercial rodent diet and free access to drinking water. Animals were randomized into five groups, a vehicle group, three dose levels of compound 7.1 (3 mg/kg, 10 mg/kg and 30 mg/kg), and Peptide A, a positive control cyclic peptide of the formula Ac-Arg-cyclo(Orn-Asn-D-Phe-Arg-Trp-Glu)-NH2. Following three days of sham dosing, animals were dosed for three days, with vehicle or Compound 7.1 dosed orally once daily at within one hour of lights out in the AM, and Peptide A dosed by subcutaneous injection twice daily within one hour before lights out and six hours after lights out. Body weights were measured one hour prior to lights out, and feed weights were measured both one hour prior to lights out and six hours post lights out.
*p<0.05 vs. sham (vehicle control) using two-way ANOVA followed by Dunnett's post-test.
**p<0.01 vs sham (vehicle control) using two-way ANOVA followed by Dunnett's post-test.

T1 sequence (P32245 whole entry): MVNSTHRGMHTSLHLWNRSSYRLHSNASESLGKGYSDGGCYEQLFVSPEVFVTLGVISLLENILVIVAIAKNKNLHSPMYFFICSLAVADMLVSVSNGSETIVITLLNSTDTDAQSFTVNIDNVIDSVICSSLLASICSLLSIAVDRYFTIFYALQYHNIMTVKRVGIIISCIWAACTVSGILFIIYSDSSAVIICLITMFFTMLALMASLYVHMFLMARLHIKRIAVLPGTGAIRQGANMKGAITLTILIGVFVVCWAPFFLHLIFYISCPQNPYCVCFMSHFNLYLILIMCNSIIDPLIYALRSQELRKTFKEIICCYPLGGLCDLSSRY
T2 sequence (Q01726 whole entry): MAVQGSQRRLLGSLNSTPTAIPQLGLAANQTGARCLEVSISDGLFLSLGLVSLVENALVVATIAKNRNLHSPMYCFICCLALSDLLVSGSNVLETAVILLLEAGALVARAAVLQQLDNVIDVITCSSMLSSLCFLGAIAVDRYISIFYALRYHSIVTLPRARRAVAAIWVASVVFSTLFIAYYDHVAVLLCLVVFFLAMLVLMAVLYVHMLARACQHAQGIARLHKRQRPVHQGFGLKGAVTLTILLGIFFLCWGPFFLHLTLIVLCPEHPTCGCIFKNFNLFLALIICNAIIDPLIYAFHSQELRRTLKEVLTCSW

Ki (MC4r [1]) [nM]	Emax (MC4r [2]) [%]	EC50 (MC4r [2]) [nM]	Compound	further results
3	10	–	CC(=O)N1CCC(N(CC(C)C)N2CCN(C(=O)[C@@H](Cc3ccc(Cl)cc3)NC(=O)C3(N)CCC3)CC2)CC1 [Compound 7.3, N-[(1R)-2-[4-[(1-acetyl-4-piperidyl)-isobutyl-amino]piperazin-1-yl]-1-[(4-chlorophenyl)methyl]-2-oxo-ethyl]-1-amino-cyclobutanecarboxamide]	–
13	34	25	CCC(N)(CC)C(=O)N[C@H](Cc1ccc(Cl)cc1)C(=O)N1CCN(N(CC(C)C)C2CCN(C(C)=O)CC2)CC1 [Compound 7.6, N-[(1R)-2-[4-[(1-acetyl-4-piperidyl)-isobutyl-amino]piperazin-1-yl]-1-[(4-chlorophenyl)methyl]-2-oxo-ethyl]-2-amino-2-ethyl-butanamide]	–
5	22	9	CC(C)CN(C1CCN(C(=O)CO)CC1)N1CCN(C(=O)[C@@H](Cc2ccc(Cl)cc2)NC(=O)C(C)(C)N)CC1 [Compound 7.10, 2-amino-N-[(1R)-1-[(4-chlorophenyl)methyl]-2-[4-[[1-(2-hydroxyacetyl)-4-piperidyl]-isobutyl-amino]piperazin-1-yl]-2-oxo-ethyl]-2-methyl-propanamide]	–
5	3	–	CC(=O)N1CCC(N(CC(C)C)N2CCN(C(=O)[C@@H](Cc3ccc(Cl)cc3)NC(=O)C3(N)CC3)CC2)CC1 [Compound 7.2, N-[(1R)-2-[4-[(1-acetyl-4-piperidyl)-isobutyl-amino]piperazin-1-yl]-1-[(4-chlorophenyl)methyl]-2-oxo-ethyl]-1-amino-cyclopropanecarboxamide]	Ki (MC1r): 40 nM
3	8	–	CC(=O)N1CCC(N(CC(C)C)N2CCN(C(=O)[C@@H](Cc3ccc(Cl)cc3)NC(=O)C3(N)CCCCCC3)CC2)CC1 [Compound 7.7, N-[(1R)-2-[4-[(1-acetyl-4-piperidyl)-isobutyl-amino]piperazin-1-yl]-1-[(4-chlorophenyl)methyl]-2-oxo-ethyl]-1-amino-cycloheptanecarboxamide]	–
–	–	–	Ac-Arg-cyclo(Orn-Asn-D-Phe-Arg-Trp-Glu)-NH2 [Peptide A]	Body Weight Change (%) Mean (C57BL/6 male DIO mice; Day 0): 0%; Food Intake - 24 Hours (g) Mean (C57BL/6 male DIO mice; Day 0, 24 hours post lights out): 0.99** g; Body Weight Change (%) Mean (C57BL/6 male DIO mice; Day 1): −5.69** %; Food Intake - 24 Hours (g) Mean (C57BL/6 male DIO mice; Day 1, 24 hours post lights out): 1.10** g; Body Weight Change (%) Mean (C57BL/6 male DIO mice; Day 2): −8.37** %; Food Intake - 24 Hours (g) Mean (C57BL/6 male DIO mice; Day 2, 24 hours post lights out): 1.67** g; Body Weight Change (%) Mean (C57BL/6 male DIO mice; Day 3): −8.78** %; effect on feed intake at 24 hours post lights out (in words) (C57BL/6 male DIO mice; 1 mg/kg, entirety of the study, compared with sham animals): significantly inhibited feed intake; effect on body weight (in words) (C57BL/6 male DIO mice; two times daily 1 mg/kg, throughout the study): decreased animal body weights
6	28	52	CCNC(=O)N1CCC(N(CC(C)C)N2CCN(C(=O)[C@@H](Cc3ccc(Cl)cc3)NC(=O)C(C)(C)N)CC2)CC1 [Compound 7.8, 4-[[4-[(2R)-2-[(2-amino-2-methyl-propanoyl)amino]-3-(4-chlorophenyl)propanoyl]piperazin-1-yl]-isobutyl-amino]-N-ethyl-piperidine-1-carboxamide]	Ki (MC1r): 150 nM
4	10	–	CC(=O)N1CCC(N(CC(C)C)N2CCN(C(=O)[C@@H](Cc3ccc(Cl)cc3)NC(=O)C3(N)CCCC3)CC2)CC1 [Compound 7.4, N-[(1R)-2-[4-[(1-acetyl-4-piperidyl)-isobutyl-amino]piperazin-1-yl]-1-[(4-chlorophenyl)methyl]-2-oxo-ethyl]-1-amino-cyclopentanecarboxamide]	–
–	–	–	CNC(C)(C)C(=O)N[C@H](Cc1ccc(Cl)cc1)C(=O)N1CCN(N(CC(C)C)C2CCN(C(C)=O)CC2)CC1 [Compound 7.9, N-[(1R)-2-[4-[(1-acetyl-4-piperidyl)-isobutyl-amino]piperazin-1-yl]-1-[(4-chlorophenyl)methyl]-2-oxo-ethyl]-2-methyl-2-(methylamino)propanamide]	relative efficacy, compared to NDP-α-MSH (MC4r [2]): 19%
6	13	6	CC(=O)N1CCC(N(CC(C)C)N2CCN(C(=O)[C@@H](Cc3ccc(Cl)cc3)NC(=O)C3(C)CCCN3)CC2)CC1 (stereo partly drawn) [Compound 7.11, N-[(1R)-2-[4-[(1-acetyl-4-piperidyl)-isobutyl-amino]piperazin-1-yl]-1-[(4-chlorophenyl)methyl]-2-oxo-ethyl]-2-methyl-pyrrolidine-2-carboxamide]	–
4	15	9	CC(=O)N1CCC(N(CC(C)C)N2CCN(C(=O)[C@@H](Cc3ccc(Cl)cc3)NC(=O)C3(N)CCCCC3)CC2)CC1 [Compound 7.5, N-[(1R)-2-[4-[(1-acetyl-4-piperidyl)-isobutyl-amino]piperazin-1-yl]-1-[(4-chlorophenyl)methyl]-2-oxo-ethyl]-1-amino-cyclohexanecarboxamide]	–
